Patent EP2547369B1, “A NA[…] MICELLE FORMED BY AN A[…]-COPOLYMER AND ENCAPSULATING A […]” (King Saud University, priority 2010, dated 2011)

Legend:
[1] = tested on: MCF-7 breast cancer cell line; experiment: MTT assay, cytotoxicity of Gd(III) complex on MCF-7; assay type: cell-based, human
From the text: (§1) The present inventors also evaluated the cytotoxicity of Gd(III) complexes using the MTT assay, another method measuring cell viability, on the Jurkat and MCF-7 cell lines (Figure 9 and 11). […] In order to estimate the concentration of Gd (III) complexes able to reduce cell viability by 50% (IC50), the present inventors plotted a linear regression line for each used cell line (Figure 10). […] It appears thus that Jurkat cells are slightly more susceptible to Gd (III) complexes than MCF-7 cells.
Two different cell lines were used to assess Gd(III) cytotoxicity: Jurkat, and MCF-7. Jurkat cells were seeded on two 96-well culture plates (BD Falcon) (50 µl in each well with a concentration of 4x10^5 cells/mL). […] Each test was repeated eight times. As a negative control, cells were treated with ethanol (96%) (the same amount of ethanol present in the cells treated with a highest concentration of Gd(III) complex). Incubation was carried out for 3 days. In this experiment the toxicity of Gd(III) complex was evaluated by the 3-(4, 5-dimethylthiazol-2-yl)-2, 5-diphenyl tetrazolium bromide (MTT) assay. At the end of each incubation time 10 µl of 5 mg/mL MTT solution (AppliChem) were added to each well followed by further incubation for 4h. Then, 100 µl of 0.04 N HCL in isopropanol (BDH Prolabo) were added to the wells and formazan crystals were allowed to solubilize for 1 hour at room temperature. The formazan concentration was quantified using a spectrophotometer (Tecan Infinite M200 monochromator-based multi-function microplate reader) by measuring the absorbance at 570 nm and 630 nm. The final optical density (OD) obtained from formazan formation was calculated with the following formula: OD=L(570nm)-L(630nm). The toxicity was assessed by calculating the % of cell survival in relation to the control untreated group. The procedure described above was repeated for the MCF-7 cell line, after being seeded at 5 × 10^3 cells per each well and allowed to attach for 24h.

[2] = tested on: Jurkat human leukemia cell line; experiment: MTT assay, cytotoxicity of free and micelle-encapsulated Gd(III) complex on Jurkat; assay type: cell-based; settings: 3 days; for cytotoxicity: 50 µM
From the text: as §1
To compare the cytotoxicity of free and micelle-encapsulated Gd(III) complexes and to verify if the time of dialysis influences polymeric micelle cytotoxicity, the present inventors performed again the MTT assay on Jurkat cells. The cells were treated with incremental concentrations of the free and micelle-encapsulated Gd(III) complexes.
Two different cell lines were used to assess Gd(III) cytotoxicity: Jurkat, and MCF-7. Jurkat cells were seeded on two 96-well culture plates (BD Falcon) (50 µl in each well with a concentration of 4x10^5 cells/mL). Different concentrations (5 µM, 10 µM, 15 µM and 20 µM) of Gd(III) complex solution, diluted in 50 µl of RPMI-1640, were used. Each test was repeated eight times. As a negative control, cells were treated with ethanol (96%) (the same amount of ethanol present in the cells treated with a highest concentration of Gd(III) complex). Incubation was carried out for 3 days. In this experiment the toxicity of Gd(III) complex was evaluated by the 3-(4, 5-dimethylthiazol-2-yl)-2, 5-diphenyl tetrazolium bromide (MTT) assay. At the end of each incubation time 10 µl of 5 mg/mL MTT solution (AppliChem) were added to each well followed by further incubation for 4h. Then, 100 µl of 0.04 N HCL in isopropanol (BDH Prolabo) were added to the wells and formazan crystals were allowed to solubilize for 1 hour at room temperature. The formazan concentration was quantified using a spectrophotometer (Tecan Infinite M200 monochromator-based multi-function microplate reader) by measuring the absorbance at 570 nm and 630 nm. The final optical density (OD) obtained from formazan formation was calculated with the following formula: OD=L(570nm)-L(630nm). The toxicity was assessed by calculating the % of cell survival in relation to the control untreated group. […]
To assess Gd(III) complex-loaded polymeric micelle cytoxicity and to compare it with the toxicity from free Gd(III) complex, Jurkat cells were seeded on a 96-well culture plate (50 µl in each well with a concentration of 4x10^5 cells/mL). […] The cytotoxicity of Gd(III) complex and Gd(III) complex-loaded polymeric micelles was evaluated by the MTT assay following the procedure mentioned on 8.2.

Jurkat cell line = experiment: Cell count with Trypan Blue, cytotoxicity of Gd(III) complex; assay type: cell-based, human; settings: 3 days
Protocol: The MCF-7, MDA-MB-468, HeLa, 293T; ARPE19; D407 and S17 adherent cell lines were maintained in DMEM medium (LONZA) supplemented with 10% fetal bovine serum (FBS) (PAA), glutamine (200 mM), penicillin (10000 units/mL) and streptomycin (10000 µg/mL) from LONZA. All cell culture incubations were performed at 37°C under humidified atmosphere of 5% CO2. The Jurkat and DND41 suspension cell lines were maintained in RPMI 1640 medium (LONZA) supplemented as above. Cells were thawed at 37°C and pipetted into 10 mL of prewarmed medium. The cells were centrifuged at 300 g for 5 minutes to remove dimethylsulfoxide (DMSO) (Merck). Then, the supernatant was discarded and the pellet resuspended in 2 mL of fresh medium. The cells were placed into T25 flasks (Nunc) and 8 mL of medium was added for a final volume of 10 mL. The medium was changed every 2 days. […] The hemocytometer Neubauer chamber (Hausser Scientific) was filled with the cell suspension and uncolored viable cells were counted on an inverted light microscope (Leica DM IL). The cells were counted in four 1 mm^2 squares. The equation to calculate the cell number per cubic millimeter is the following: Number of cells counted per square millimeter × dilution used × 10. […]

[3] = cited from earlier work

Compound	toxicity (number of viable cells) ([1]; 10 µM, MTT, 3 days, MCF-7)	toxicity ([1]; 50 µM, 3 days, MCF-7 cells as printed)	IC50 ([1]; MCF-7, 3 days, MTT, from linear regression line, read-out: IC50 (concentration able to reduce cell viability by 50%)) [µM]	toxicity (number of viable cells) ([2]; 10 µM)	cytotoxicity [2]	cytotoxicity ([2]; listed as free Gd(III) complexes)	IC50 ([2]; from linear regression line, read-out: IC50 (concentration able to reduce cell viability by 50%)) [µM]	toxicity by cell count (Jurkat cell line; 10 µM)	toxicity by cell count (Jurkat cell line; 50 µM)	solubility in aqueous media [3]
tetraaquodichloro(4,4'-ditBu-2,2'-bipyridine) gadolinium(III) chloride [Gd(III) complexes]	toxic	overall cell death	12.8	toxic	kill all cells	killed almost all cells	10.2	less toxic	very toxic	
Cc1ccc2ccc3cccc4ccc1c2c34 [1-methylpyrene]										ca. 10^-7 M
